Test results: US20230181746A1, “BENZOYLHYDRAZIDE-DERIVED HDAC DEGRADERS AS THERAPEUTICS FOR TREATING CANCER AND OTHER HUMAN DISEASES” (University of Florida Research Foundation, Inc., priority 2020, published 2023)

What was measured:
[1] = target: T1, HDAC2 (Homo sapiens, UniProt Q92769); assay: HDAC2 protein level in breast cancer cell lines, Western blot; type: cell-based; settings: MDA-MB-468 cells, 14 h
Description: FIG. 3A: Western blot showing HDAC protein levels in MDA-MB-468 cells treated with the indicated concentration of XZ9002 for 14 h. FIG. 3B: pretreatment with 1 μM MG132, or 10 μM VHL032 for 1 h blocked the degradation of HDAC3 by XZ9002 {125 nM}. […] NC: XZ9002-NC. FIG. 3C: time-dependent experiment in MDA-MB-468 cells after treatment with 125 nM XZ9002 at the indicated time points. FIG. 3D: MDA-MB-468 cells were incubated with 125 nM of XZ9002 for 14 h followed by drug washout, and incubation of the cells in drug-free medium for an additional time. Data are presented as representative figures of two independent experiments.
(§1) The culture of the triple-negative breast cancer cell line MDA-MB-468 and the ER+ breast cancer cell line T47D was exposed to vehicle control (DMSO) and the indicated compounds at specified concentrations for 14 h. Cells were lysed for WB with antibodies against the indicated proteins. Antibodies against acetylated histones at specific sites (H3K27 and H4K5) and acetyl-lysine were used to assess levels of histone acetylation. Levels of HDAC3 were normalized against that of tubulin and % of HDAC3 protein levels in cells treated with the indicated compounds relative to that in DMSO control is shown.
FIGS. 8A-8B show the cellular activity of XZ9002. […] Cells were lysed for WB. The relative HDAC3 protein level in each sample is shown. […]

[2] = target: HDAC1 (Homo sapiens, UniProt Q13547); assay: In vitro HDAC activity assay (HDAC-Glo I/II), HDAC1; type: biochemical; set-up: purchased Enzo Life Sciences BML-SE456-0050; settings: average of three independent assays ± standard deviation
Sequence of HDAC1 (Q13547 whole entry, the tested form may be a part): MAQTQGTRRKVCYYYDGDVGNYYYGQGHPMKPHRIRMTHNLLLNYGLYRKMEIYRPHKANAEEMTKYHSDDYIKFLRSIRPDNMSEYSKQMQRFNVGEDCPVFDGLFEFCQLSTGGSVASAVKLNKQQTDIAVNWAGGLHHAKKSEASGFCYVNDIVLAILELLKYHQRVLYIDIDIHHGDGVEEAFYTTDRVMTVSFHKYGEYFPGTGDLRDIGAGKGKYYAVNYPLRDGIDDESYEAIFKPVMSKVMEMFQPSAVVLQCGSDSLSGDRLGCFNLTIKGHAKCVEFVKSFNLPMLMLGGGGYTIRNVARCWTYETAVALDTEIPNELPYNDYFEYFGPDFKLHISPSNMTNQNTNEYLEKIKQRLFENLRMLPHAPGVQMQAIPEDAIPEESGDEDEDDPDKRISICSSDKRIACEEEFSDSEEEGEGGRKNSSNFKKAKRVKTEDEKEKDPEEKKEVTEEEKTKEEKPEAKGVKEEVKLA
Description: (§2) Purified HDAC1, HDAC2, and HDAC3 (in complex with the deacetylase activation domain of the human NCOR2 (amino acids 395-498)) were obtained from Enzo Life Sciences (HDAC1, catalog # BML-SE456-0050) and BPS Bioscience (HDAC2, catalog #50002 and HDAC3, catalog #50003), respectively. The enzyme activities were tested using the HDAC-Glo I/II reagents (Promega) according to a protocol provided by the manufacturer.

[3] = system: histone acetylation (H3K27ac, H4K5ac, acetyl-lysine); assay: Histone acetylation in cells, Western blot; type: cell-based; settings: MDA-MB-468 cells; only moderate effects compared to 15 and CRBN-based PROTACs
Description: as §1
Cell lines were obtained from ATCC and subsequently authenticated. Cells were cultured with DMEM supplemented with 10% bovine calf serum, penicillin to 10 units/mL, and streptomycin to 10 μg/mL. For viability assays, 5,000 cells/well were seeded in 96-well plates. Compounds at a specified concentration or DMSO were added 24 h later. Viability assays were performed 72 h after compound addition using the CellTiter-Glo reagents (Promega). For colony formation assay, cells (˜1,000 cells/well) were seeded in a 24-well plate in quadruplicates. At 24 h after seeding, DMSO, XZ9002, or XZ9002-NC were added at a specified concentration. […]

[4] = target: T1, HDAC2; assay: In vitro HDAC activity assay (HDAC-Glo I/II), HDAC2; type: biochemical; set-up: purchased BPS Bioscience 50002; settings: average of three independent assays ± standard deviation
Description: as §2

[5] = target: T2, HDAC3 (in complex with the deacetylase activation domain of the human NCOR2 (amino acids 395-498)) (Homo sapiens, UniProt O15379); assay: In vitro HDAC activity assay (HDAC-Glo I/II), HDAC3; type: biochemical; settings: HDAC-Glo I/II; average of three independent assays ± standard deviation
T2 construct: purchased BPS Bioscience 50003
T2 sequence (O15379 whole entry, the tested form may be a part): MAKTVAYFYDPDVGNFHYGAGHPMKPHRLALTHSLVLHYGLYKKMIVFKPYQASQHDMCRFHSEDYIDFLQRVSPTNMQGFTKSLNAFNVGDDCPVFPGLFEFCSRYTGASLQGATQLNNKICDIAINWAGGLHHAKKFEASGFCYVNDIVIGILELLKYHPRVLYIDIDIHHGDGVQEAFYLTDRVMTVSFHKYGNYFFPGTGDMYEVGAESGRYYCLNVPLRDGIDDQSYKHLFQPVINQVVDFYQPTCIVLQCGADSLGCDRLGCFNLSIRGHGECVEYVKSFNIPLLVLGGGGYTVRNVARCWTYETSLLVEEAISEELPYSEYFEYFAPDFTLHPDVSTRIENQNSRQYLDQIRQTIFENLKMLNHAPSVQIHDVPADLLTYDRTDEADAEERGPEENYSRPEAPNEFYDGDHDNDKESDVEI
T2 sequence (Q9Y618 395-498 partner limits assumed): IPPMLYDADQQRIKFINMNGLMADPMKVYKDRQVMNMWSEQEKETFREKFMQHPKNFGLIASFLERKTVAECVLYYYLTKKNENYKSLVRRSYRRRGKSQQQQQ
Description: as §2

T1 sequence (Q92769 whole entry): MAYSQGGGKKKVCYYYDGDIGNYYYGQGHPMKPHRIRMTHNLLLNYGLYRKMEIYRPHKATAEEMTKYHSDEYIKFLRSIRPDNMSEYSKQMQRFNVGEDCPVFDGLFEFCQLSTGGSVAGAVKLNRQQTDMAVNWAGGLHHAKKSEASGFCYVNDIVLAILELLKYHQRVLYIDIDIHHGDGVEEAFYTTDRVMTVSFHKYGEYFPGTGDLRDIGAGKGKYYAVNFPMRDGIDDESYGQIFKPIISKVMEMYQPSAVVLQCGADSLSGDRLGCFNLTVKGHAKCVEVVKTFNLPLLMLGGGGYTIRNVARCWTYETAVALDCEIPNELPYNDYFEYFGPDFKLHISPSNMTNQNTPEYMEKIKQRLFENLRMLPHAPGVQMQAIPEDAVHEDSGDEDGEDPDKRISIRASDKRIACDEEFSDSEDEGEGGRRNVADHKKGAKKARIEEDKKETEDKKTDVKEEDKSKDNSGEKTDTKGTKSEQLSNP

`CCCNNC(=O)c1ccc(-c2ccc(NC(=O)CCCCCCC(=O)N[C@H](C(=O)N3C[C@H](O)C[C@H]3C(=O)N[C@@H](C)c3ccc(-c4scnc4C)cc3)C(C)(C)C)cc2)cc1` [XZ9002, N^1—((S)-1-((2S,4R)-4-hydroxy-2-(((S)-1-(4-(4-methylthiazol-5-yl)phenyl)ethyl)carbamoyl)pyrrolidin-1-yl)-3,3-dimethyl-1-oxobutan-2-yl)-N^5-(4′-(2-propylhydrazine-1-carbonyl)-[1,1′-biphenyl]-4-yl)octanediamide] was tested, and the “change in HDAC2 protein level” value [1] was “no significant changes”, the IC50 [2] was 650 ± 70 nM and the histone acetylation [3] was “dose-dependently increased”. For the same molecule, the IC50 [4] was 1550 ± 70 nM and the IC50 [5] was 350 ± 70 nM.
